This note sets out measurements from patent publication US20230123334A1, “AMINO LIPID COMPOUND, PREPARATION METHOD THEREFOR, AND APPLICATION THEREOF” (SHENZHEN SHENXIN BIOTECHNOLOGY CO., LTD., priority 2020, published 2023).

For one assay, the system named is Hela cells. The assay can be described thus: Transfection of Hela cell line, mRNA vectors. Format: cell-based. The conditions noted are these: 50 ng EGFP mRNA per well. In short, it runs like this:
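Transfection efficiency was scored as GFP-fluorescent cells over Hoechst-stained total nuclei, with Lipofectamine2000 as reference reagent. Each well of HeLa cells, grown in DMEM plus 10% FBS, received 50 ng EGFP mRNA.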
As to `CCCCCCCCCCCSc1nc(NCCN2CCCC2)nc(SCCCCCCC)n1` [Compound S7S11D3], the “Absolute mRNA transfection efficiency in Hela cells” value was determined as 4.8%.
Turning to `CCCCCCCCCCCSc1nc(NCCN2CCN(C)CC2)nc(SCCCCCCC)n1` [Compound S7S11D5], the “Absolute mRNA transfection efficiency in Hela cells” value is 16.8%.
With `CCCCCCCCCCCSc1nc(NCCCN(C)C)nc(SCCCCCCC)n1` [Compound S7S11D6], the “Absolute mRNA transfection efficiency in Hela cells” value is on record as 14.5%.
As for `CCCCCCCCCCCSc1nc(NCCCN2CCOCC2)nc(SCCCCCCC)n1` [Compound S7S11D8], the “Absolute mRNA transfection efficiency in Hela cells” value is reported as 5.6%.
Same read-out and setting: the same measure for `CCCCCCCCCCCSc1nc(NCCCN2CCN(C)CC2)nc(SCCCCCCC)n1` [Compound S7S11D9]: 12.9%.
Still for that read-out and setting: the result for `CCCCCCCCCCCSc1nc(NCC2CCN(C)CC2)nc(SCCCCCCC)n1` [Compound S7S11D10] reads 19.7%; that for `CCCCCCCCCCCCSc1nc(NCCN2CCCC2)nc(SCCCCCCC)n1` [Compound S7S12D3], 4.9%.
Consider `CCCCCCCCCCCCSc1nc(NCCN2CCN(C)CC2)nc(SCCCCCCC)n1` [Compound S7S12D5], for which the “Absolute mRNA transfection efficiency in Hela cells” value came out at 4.9%.
Still for that read-out and setting: the same measure for `CCCCCCCCCCCCSc1nc(NCCCN(C)C)nc(SCCCCCCC)n1` [Compound S7S12D6]: 5.8%; for `CCCCCCCCCCCCSc1nc(NCCCN2CCOCC2)nc(SCCCCCCC)n1` [Compound S7S12D8]: 5.4%.
On to `CCCCCCCCCCCCSc1nc(NCCCN2CCN(C)CC2)nc(SCCCCCCC)n1` [Compound S7S12D9], for which the “Absolute mRNA transfection efficiency in Hela cells” value came out at 2.9%.
`CCCCCCCCCCCCSc1nc(NCC2CCN(C)CC2)nc(SCCCCCCC)n1` [Compound S7S12D10]: the “Absolute mRNA transfection efficiency in Hela cells” value is on record as 10.6%.

A further assay concerns MCF7 cells. Kind of assay: Transfection of MCF7 cell line, mRNA vectors. The class given is cell-based. Particulars: 50 ng EGFP mRNA per well. As to the method: (§1) Cell line: MCF7 cells (ATCC HTB-22)
Medium: DMEM supplemented with 10 fetal bovine serum (Invitrogen)
(§2) Screening: cell transfection on 96-well plates
Detection (readout): percentage of the number of GFP fluorescent cells relative to the total number of cells (the total number of cells was determined using nucleus dye Hoechst). Lipofectamine2000 (Invitrogen) was used as the positive control.
Method: the experimental method was basically the same with Example 4, and the mass of EGFP mRNA (TriLink) for transfection was 50 ng per well.
In the case of `CCCCCCCCCCCSc1nc(NCCN2CCCC2)nc(SCCCCCCC)n1` [Compound S7S11D3], the “Absolute mRNA transfection efficiency in MCF7 cells” value amounted to 6.7%.
On the same count and under the same terms, the result for `CCCCCCCCCCCSc1nc(NCCN2CCN(C)CC2)nc(SCCCCCCC)n1` [Compound S7S11D5] reads 16.5%; that for `CCCCCCCCCCCSc1nc(NCCCN(C)C)nc(SCCCCCCC)n1` [Compound S7S11D6], 26.1%.
Regarding `CCCCCCCCCCCSc1nc(NCCCN2CCOCC2)nc(SCCCCCCC)n1` [Compound S7S11D8], the “Absolute mRNA transfection efficiency in MCF7 cells” value is 1.5%.
With `CCCCCCCCCCCSc1nc(NCCCN2CCN(C)CC2)nc(SCCCCCCC)n1` [Compound S7S11D9], the “Absolute mRNA transfection efficiency in MCF7 cells” value was 3.6%.
In the case of `CCCCCCCCCCCSc1nc(NCC2CCN(C)CC2)nc(SCCCCCCC)n1` [Compound S7S11D10], the “Absolute mRNA transfection efficiency in MCF7 cells” value turned out to be 22.2%.
Regarding `CCCCCCCCCCCCSc1nc(NCCN2CCCC2)nc(SCCCCCCC)n1` [Compound S7S12D3], the “Absolute mRNA transfection efficiency in MCF7 cells” value was 9.4%.
Same read-out and setting: the same measure for `CCCCCCCCCCCCSc1nc(NCCN2CCN(C)CC2)nc(SCCCCCCC)n1` [Compound S7S12D5]: 33.6%; for `CCCCCCCCCCCCSc1nc(NCCCN(C)C)nc(SCCCCCCC)n1` [Compound S7S12D6]: 19.1%.
Still for that read-out and setting: the result for `CCCCCCCCCCCCSc1nc(NCCCN2CCOCC2)nc(SCCCCCCC)n1` [Compound S7S12D8] reads 24.0%; that for `CCCCCCCCCCCCSc1nc(NCCCN2CCN(C)CC2)nc(SCCCCCCC)n1` [Compound S7S12D9], 21.2%.
On the same count and under the same terms, the same measure for `CCCCCCCCCCCCSc1nc(NCC2CCN(C)CC2)nc(SCCCCCCC)n1` [Compound S7S12D10]: 47.5%.

The next assay concerns Hela cells. Kind of assay: Transfection of Hela cell line, DNA vectors. Format: cell-based. Particulars: 75 ng plasmid DNA, GFP cells / total cells. Summed up: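 Amino lipid/DOPE liposomes in sodium acetate pH 5.6 were complexed with 75 ng psin-EGFP-IRES-Puro plasmid for 30 min at room temperature, then mixed with 3-5×10^4 Hela cells in DMEM/10% FBS at 37° C. Hoechst stain after 20-24 h, imaging after a further 20-24 h. Efficiency = GFP-positive cells / total nuclei.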
In the case of `CCCCCCCCCCCSc1nc(NCCN2CCCC2)nc(SCCCCCCC)n1` [Compound S7S11D3], the “Absolute DNA transfection efficiency in Hela cells” value was 4.8%.
Still for that read-out and setting: the result for `CCCCCCCCCCCSc1nc(NCCN2CCN(C)CC2)nc(SCCCCCCC)n1` [Compound S7S11D5] reads 16.8%; that for `CCCCCCCCCCCSc1nc(NCCCN(C)C)nc(SCCCCCCC)n1` [Compound S7S11D6], 14.5%.
Still for that read-out and setting: the result for `CCCCCCCCCCCSc1nc(NCCCN2CCOCC2)nc(SCCCCCCC)n1` [Compound S7S11D8] reads 5.6%; that for `CCCCCCCCCCCSc1nc(NCCCN2CCN(C)CC2)nc(SCCCCCCC)n1` [Compound S7S11D9], 12.9%.
`CCCCCCCCCCCSc1nc(NCC2CCN(C)CC2)nc(SCCCCCCC)n1` [Compound S7S11D10]: the “Absolute DNA transfection efficiency in Hela cells” value turned out to be 19.7%.
For the molecule `CCCCCCCCCCCCSc1nc(NCCN2CCCC2)nc(SCCCCCCC)n1` [Compound S7S12D3], the “Absolute DNA transfection efficiency in Hela cells” value was determined as 4.9%.
The same measure, in the same setting: the result for `CCCCCCCCCCCCSc1nc(NCCN2CCN(C)CC2)nc(SCCCCCCC)n1` [Compound S7S12D5] reads 4.9%.
Turning to `CCCCCCCCCCCCSc1nc(NCCCN(C)C)nc(SCCCCCCC)n1` [Compound S7S12D6], the “Absolute DNA transfection efficiency in Hela cells” value is listed as 5.8%.
Still for that read-out and setting: the result for `CCCCCCCCCCCCSc1nc(NCCCN2CCOCC2)nc(SCCCCCCC)n1` [Compound S7S12D8] reads 5.4%; that for `CCCCCCCCCCCCSc1nc(NCCCN2CCN(C)CC2)nc(SCCCCCCC)n1` [Compound S7S12D9], 2.9%; that for `CCCCCCCCCCCCSc1nc(NCC2CCN(C)CC2)nc(SCCCCCCC)n1` [Compound S7S12D10], 10.6%.

In another assay the test system is MCF7 cells. Kind of assay: Transfection of MCF7 cell line, DNA vectors. Particulars: plasmid DNA, GFP cells / total cells. Format: cell-based. The arrangement: concentration or dose not given beside the values. As to the method: as §1
Medium DMEM supplemented with […] fetal bovine serum
as §2
Detection (readout): percentage of the number of GFP fluorescent cells relative to the total number of cells (the total number of cells was determined using nucleus dye Hoechst). Lipofectamine2000 was used as the positive control, according to the manufacturer's instructions.
Method: the experimental method was basically the same with Example 4.
Regarding `CCCCCCCCCCCSc1nc(NCCN2CCCC2)nc(SCCCCCCC)n1` [Compound S7S11D3], the “Absolute DNA transfection efficiency in MCF7 cells” value is listed as 6.4%.
In the case of `CCCCCCCCCCCSc1nc(NCCN2CCN(C)CC2)nc(SCCCCCCC)n1` [Compound S7S11D5], the “Absolute DNA transfection efficiency in MCF7 cells” value is recorded as 23.3%.
Same read-out and setting: the same measure for `CCCCCCCCCCCSc1nc(NCCCN(C)C)nc(SCCCCCCC)n1` [Compound S7S11D6]: 38.1%; for `CCCCCCCCCCCSc1nc(NCCCN2CCOCC2)nc(SCCCCCCC)n1` [Compound S7S11D8]: 12.9%; for `CCCCCCCCCCCSc1nc(NCCCN2CCN(C)CC2)nc(SCCCCCCC)n1` [Compound S7S11D9]: 44.5%.
For the molecule `CCCCCCCCCCCSc1nc(NCC2CCN(C)CC2)nc(SCCCCCCC)n1` [Compound S7S11D10], the “Absolute DNA transfection efficiency in MCF7 cells” value was found to be 33.8%.
Consider `CCCCCCCCCCCCSc1nc(NCCN2CCCC2)nc(SCCCCCCC)n1` [Compound S7S12D3], for which the “Absolute DNA transfection efficiency in MCF7 cells” value amounted to 3.0%.
In the case of `CCCCCCCCCCCCSc1nc(NCCN2CCN(C)CC2)nc(SCCCCCCC)n1` [Compound S7S12D5], the “Absolute DNA transfection efficiency in MCF7 cells” value worked out at 27.1%.
Consider `CCCCCCCCCCCCSc1nc(NCCCN(C)C)nc(SCCCCCCC)n1` [Compound S7S12D6], for which the “Absolute DNA transfection efficiency in MCF7 cells” value came out at 52.1%.
As for `CCCCCCCCCCCCSc1nc(NCCCN2CCOCC2)nc(SCCCCCCC)n1` [Compound S7S12D8], the “Absolute DNA transfection efficiency in MCF7 cells” value is 11.5%.
Still for that read-out and setting: the result for `CCCCCCCCCCCCSc1nc(NCCCN2CCN(C)CC2)nc(SCCCCCCC)n1` [Compound S7S12D9] reads 14.6%; that for `CCCCCCCCCCCCSc1nc(NCC2CCN(C)CC2)nc(SCCCCCCC)n1` [Compound S7S12D10], 44.7%.
